Experimental data published in US9593155B2, “Oxyntomodulin analogs” (priority 2009, dated 2017).
*1 amine or outer side, *2 acyl side, *3 side chain or, on linkers, in order; H or OH if unused. Where a SMILES comes first, the peptide text is derived from it. Side-chain parts run from the residue outwards. [ ]: non-standard residue; d: D form. The star is where a group is joined. X3 = CC(C)CCC[C@@H](C)[C@H]1CC[C@H]2[C@@H]3CC=C4C[C@@H](OC(=O)CCOCCOCCOCCOCCNC(=O)C*)CC[C@]4(C)[C@H]3CC[C@]12C; γGlu = O=C(O)[C@H](CCC(=O)[*:2])N[*:1]; Palmitoyl = CCCCCCCCCCCCCCCC(=O)*; Ac4c = NC1(C(=O)O)CCC1

Key:
hGCGR [1] = biological target: T1, hGCGR (Homo sapiens, UniProt P47871); experiment: cell-based cAMP assay as described in WO2008101017 (Table 11), hGCGR
T1 sequence (P47871 26-477): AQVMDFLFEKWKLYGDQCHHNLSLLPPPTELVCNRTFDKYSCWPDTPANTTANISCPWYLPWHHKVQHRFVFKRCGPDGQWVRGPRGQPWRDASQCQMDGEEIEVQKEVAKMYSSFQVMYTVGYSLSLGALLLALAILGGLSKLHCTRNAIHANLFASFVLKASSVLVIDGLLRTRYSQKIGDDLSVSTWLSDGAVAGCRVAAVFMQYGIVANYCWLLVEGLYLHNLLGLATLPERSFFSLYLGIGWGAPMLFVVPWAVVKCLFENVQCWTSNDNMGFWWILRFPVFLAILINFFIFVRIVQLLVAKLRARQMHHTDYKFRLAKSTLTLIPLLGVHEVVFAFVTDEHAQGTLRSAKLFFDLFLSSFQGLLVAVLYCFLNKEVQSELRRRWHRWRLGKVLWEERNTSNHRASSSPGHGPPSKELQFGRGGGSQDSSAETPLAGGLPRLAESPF
Excerpt: This example presents tables showing the in vitro potencies of various peptide analogs at the human GLP-1 receptor (hGLP-1R) and the human glucagon receptor (hGCGR).

hGCGR [2] = biological target: T1, hGCGR; experiment: fluorescence cell based cAMP assay, CHO cells stably expressing GCGR; settings: hGCGR + 20% plasma EC50, Table 10, 20% plasma
Description: We initially screened peptides in fluorescence cell based assays that measure production of cyclic-AMP (cAMP), using CHO cell lines stably expressing either recombinant human GLP-1R or human GCGR. Determination of Mouse and human GLP-1R and GCGR Agonist Activity was essentially as follows. CHO cells stably expressing mouse or human GLP-1R or GCGR were grown in Iscove's Modified Dulbecco's Medium (IMDM), 10% FBS, 1 mM L-glutamine, penicillin-streptomycin (100 μ/mL) and 750 μg G418/mL for three-four days before harvesting using Enzymefree Dissociation Media (EFDM, Specialty Media). […] The assay was terminated with the addition of the LANCE kit Detection buffer as per the manufacturer's instructions. The plates were held an additional hour at room temperature, then increasing cAMP levels were detected by a decrease in TR-FRET signal as measured in an EnVision counter (PerkinElmer) in comparison to a standard curve of cAMP as per the manufacturer's instructions. Data were analyzed using the linear and nonlinear regression analysis software, GraphPad Prism.
The in vitro potencies shown in Table 10 or Table 11 were determined from the results of assays that were similar to either the cell-based cAMP assays described herein above (Table 10) or the cell-based cAMP assays described in International Published Application No. WO2008101017, which is incorporated herein in its entirety, in particular the cell-based cAMP assays described therein (Table 11).

[3] = pI of the peptide analogs; settings: Table 10
[4] = system: human mast cell line LAD2; experiment: mast cell degranulation counterscreen, beta-hexosaminidase release; format: cell-based; settings: LAD2 cells, 30 minutes; read-out: Degranulation potency EC50
Description: LAD2 cells (50,000 cells/well, 96-well plate) were incubated with compounds for 30 minutes. The degranulation of LAD2 cells was determined by quantification of the β-hexosaminidase released into the supernatants and in cell lysates after hydrolysis of 4-methylumbelliferyl-N-acetyl-β-D-glucosaminide. Results are expressed as percentage of β-hexosaminidase release, calculated as percent of total content.

| Compound | pI [3] | EC50 [4] | also measured |
| --- | --- | --- | --- |
| CCCCCCCCCCCCCCCCCC(=O)N[C@@H](CCC(=O)N[C@@H](CCC(=O)NCCCC[C@H](NC(=O)[C@H](CC(=O)O)NC(=O)[C@H](CO)NC(=O)[C@@H](NC(=O)[C@H](Cc1ccccc1)NC(=O)[C@@H](NC(=O)CNC(=O)[C@H](CCC(N)=O)NC(=O)[C@@H](CO)NC(=O)[C@@H](N)Cc1c[nH]cn1)[C@@H](C)O)[C@@H](C)O)C(=O)N[C@@H](CO)C(=O)N[C@@H](CCCCN)C(=O)N[C@@H](Cc1ccc(O)cc1)C(=O)N[C@@H](CC(C)C)C(=O)N[C@@H](CC(=O)O)C(=O)NC(C)(C)C(=O)N[C@@H](CCCNC(=N)N)C(=O)N[C@@H](CCCNC(=N)N)C(=O)N[C@@H](C)C(=O)N[C@@H](CCC(N)=O)C(=O)N[C@@H](CC(=O)O)C(=O)N[C@@H](Cc1ccccc1)C(=O)N[C@H](C(=O)N[C@@H](CCC(N)=O)C(=O)N[C@@H](Cc1c[nH]c2ccccc12)C(=O)N[C@@H](CC(C)C)C(=O)N[C@@H](CCSC)C(=O)N[C@@H](CC(N)=O)C(=O)N[C@H](C(=O)N[C@@H](CCCCN)C(=O)N[C@@H](CCC(N)=O)C(=O)O)[C@@H](C)O)C(C)C)C(=O)O)C(=O)O [MM132] | – | – | EC50 (hGCGR [1]): 0.004 nM |
| CCCCCCCCCCCCCCCC(=O)N[C@@H](CCC(=O)N[C@@H](CCC(=O)NCCCC[C@H](NC(=O)[C@H](CC(=O)O)NC(=O)[C@H](CO)NC(=O)[C@@H](NC(=O)[C@H](Cc1ccccc1)NC(=O)[C@@H](NC(=O)CNC(=O)[C@H](CCC(N)=O)NC(=O)C1(NC(=O)[C@@H](N)Cc2c[nH]cn2)CCC1)[C@@H](C)O)[C@@H](C)O)C(=O)N[C@@H](CO)C(=O)N[C@@H](CCCCN)C(=O)N[C@@H](Cc1ccc(O)cc1)C(=O)N[C@@H](CC(C)C)C(=O)N[C@@H](CC(=O)O)C(=O)N[C@@H](CCC(=O)O)C(=O)N[C@@H](CCCNC(=N)N)C(=O)N[C@@H](CCCNC(=N)N)C(=O)N[C@@H](C)C(=O)N[C@@H](CCC(N)=O)C(=O)N[C@@H](CC(=O)O)C(=O)N[C@@H](Cc1ccccc1)C(=O)N[C@H](C(=O)N[C@@H](CCC(N)=O)C(=O)N[C@@H](Cc1c[nH]c2ccccc12)C(=O)N[C@@H](CC(C)C)C(=O)N[C@@H](CCSC)C(=O)N[C@@H](CC(N)=O)C(=O)N[C@H](C(=O)N[C@@H](CCCCN)C(N)=O)[C@@H](C)O)C(C)C)C(=O)O)C(=O)O [OXM417] (H-H[Ac4c]QGTFTSDK([γGlu-γGlu-Palmitoyl])SKYLDERRAQDFVQWLMNTK-NH2) | 5.5 | – | EC50 (hGCGR [2]): 0.4 nM |
| CCCCCCCCCCCCCCCC(=O)N[C@@H](CCC(=O)N[C@@H](CCC(=O)NCCCC[C@H](NC(=O)[C@H](CC(=O)O)NC(=O)[C@H](CO)NC(=O)[C@@H](NC(=O)[C@H](Cc1ccccc1)NC(=O)[C@@H](NC(=O)CNC(=O)[C@H](CCC(N)=O)NC(=O)[C@@H](CO)NC(=O)[C@@H](N)Cc1c[nH]cn1)[C@@H](C)O)[C@@H](C)O)C(=O)N[C@@H](CO)C(=O)N[C@@H](CCCCN)C(=O)N[C@@H](Cc1ccc(O)cc1)C(=O)N[C@@H](CC(C)C)C(=O)N[C@@H](CC(=O)O)C(=O)N[C@@H](CCC(=O)O)C(=O)N[C@@H](CCCNC(=N)N)C(=O)N[C@@H](CCCNC(=N)N)C(=O)N[C@@H](C)C(=O)N[C@@H](CCC(N)=O)C(=O)N[C@@H](CC(=O)O)C(=O)N[C@@H](Cc1ccccc1)C(=O)N[C@H](C(=O)N[C@@H](CCC(N)=O)C(=O)N[C@@H](Cc1c[nH]c2ccccc12)C(=O)N[C@@H](CC(C)C)C(=O)N[C@@H](CCSC)C(=O)N[C@@H](CC(N)=O)C(=O)N[C@H](C(=O)N[C@@H](CCCCN)C(N)=O)[C@@H](C)O)C(C)C)C(=O)O)C(=O)O [OXM411] (H-H[dS]QGTFTSDK([γGlu-γGlu-Palmitoyl])SKYLDERRAQDFVQWLMNTK-NH2; N-terminus assumed) | 5.4 | > 10000 nM | – |
| CSCC[C@H](NC(=O)[C@H](CC(C)C)NC(=O)[C@H](Cc1c[nH]c2ccccc12)NC(=O)[C@H](CCC(N)=O)NC(=O)[C@@H](NC(=O)[C@H](Cc1ccccc1)NC(=O)[C@H](CC(=O)O)NC(=O)[C@H](CCC(N)=O)NC(=O)[C@H](C)NC(=O)[C@H](C)NC(=O)[C@H](CCC(=O)O)NC(=O)[C@H](CO)NC(=O)[C@H](CC(=O)O)NC(=O)[C@H](CC(C)C)NC(=O)[C@H](Cc1ccc(O)cc1)NC(=O)[C@H](CCCCN)NC(=O)[C@H](CO)NC(=O)[C@H](Cc1ccc(O)cc1)NC(=O)[C@H](CC(=O)O)NC(=O)[C@H](CO)NC(=O)[C@@H](NC(=O)[C@H](Cc1ccccc1)NC(=O)[C@@H](NC(=O)CNC(=O)[C@H](CCC(N)=O)NC(=O)[C@@H](CO)NC(=O)[C@@H](N)Cc1c[nH]cn1)[C@@H](C)O)[C@@H](C)O)C(C)C)C(=O)N[C@@H](CC(N)=O)C(=O)N[C@H](C(=O)N[C@@H](CCCCN)C(=O)N[C@@H](CSCC(=O)NCCOCCOCCOCCOCCC(=O)O[C@H]1CC[C@@]2(C)C(=CC[C@H]3[C@@H]4CC[C@H]([C@H](C)CCCC(C)C)[C@@]4(C)CC[C@@H]32)C1)C(N)=O)[C@@H](C)O [OXM303] (H-H[dS]QGTFTSDYSKYLDSEAAQDFVQWLMNTKC(X3)-NH2; N-terminus assumed) | – | 100 nM | – |
| CCCCCCCCCCCCCCCC(=O)N[C@@H](CCC(=O)N[C@@H](CCC(=O)NCCCC[C@H](NC(=O)[C@H](C)NC(=O)[C@H](CCCNC(=N)N)NC(=O)[C@H](CCCNC(=N)N)NC(=O)[C@H](CO)NC(=O)[C@H](CC(=O)O)NC(=O)[C@H](CC(C)C)NC(=O)[C@H](Cc1ccc(O)cc1)NC(=O)[C@H](CCCCN)NC(=O)[C@H](CO)NC(=O)[C@H](Cc1ccc(O)cc1)NC(=O)[C@H](CC(=O)O)NC(=O)[C@H](CO)NC(=O)[C@@H](NC(=O)[C@H](Cc1ccccc1)NC(=O)[C@@H](NC(=O)CNC(=O)[C@H](CCC(N)=O)NC(=O)[C@@H](CO)NC(=O)[C@@H](N)Cc1c[nH]cn1)[C@@H](C)O)[C@@H](C)O)C(=O)N[C@@H](CC(=O)O)C(=O)N[C@@H](Cc1ccccc1)C(=O)N[C@H](C(=O)N[C@@H](CCC(N)=O)C(=O)N[C@@H](Cc1c[nH]c2ccccc12)C(=O)N[C@@H](CC(C)C)C(=O)N[C@@H](CCSC)C(=O)N[C@@H](CC(N)=O)C(=O)N[C@H](C(=O)N[C@@H](CCCCN)C(=O)N[C@@H](CCC(N)=O)C(=O)O)[C@@H](C)O)C(C)C)C(=O)O)C(=O)O [OXM408] | – | > 10000 nM | – |
| CCCCCCCCCCCCCCCC(=O)N[C@@H](CCC(=O)N[C@@H](CCC(=O)NCCCC[C@H](NC(=O)[C@H](C)NC(=O)[C@H](CCCNC(=N)N)NC(=O)[C@H](CCCNC(=N)N)NC(=O)[C@H](CCC(=O)O)NC(=O)[C@H](CC(=O)O)NC(=O)[C@H](CC(C)C)NC(=O)[C@H](Cc1ccc(O)cc1)NC(=O)[C@H](CCCCN)NC(=O)[C@H](CO)NC(=O)[C@H](Cc1ccc(O)cc1)NC(=O)[C@H](CC(=O)O)NC(=O)[C@H](CO)NC(=O)[C@@H](NC(=O)[C@H](Cc1ccccc1)NC(=O)[C@@H](NC(=O)CNC(=O)[C@H](CCC(N)=O)NC(=O)[C@@H](CO)NC(=O)[C@@H](N)Cc1c[nH]cn1)[C@@H](C)O)[C@@H](C)O)C(=O)N[C@@H](CC(=O)O)C(=O)N[C@@H](Cc1ccccc1)C(=O)N[C@H](C(=O)N[C@@H](CCC(N)=O)C(=O)N[C@@H](Cc1c[nH]c2ccccc12)C(=O)N[C@@H](CC(C)C)C(=O)N[C@@H](CCSC)C(=O)N[C@@H](CC(N)=O)C(=O)N[C@H](C(=O)N[C@@H](CCCCN)C(N)=O)[C@@H](C)O)C(C)C)C(=O)O)C(=O)O [OXM410] (H-H[dS]QGTFTSDYSKYLDERRAK([γGlu-γGlu-Palmitoyl])DFVQWLMNTK-NH2; N-terminus assumed) | – | > 10000 nM | – |
